This note sets out measurements from patent US6114334A, “Piperazine derivatives as therapeutic agents” (Knoll Aktiengesellschaft, priority 1995, dated 2000).

The structures appear in SMILES notation. Some results are limits rather than exact numbers.

As usually defined, the Ki is a dissociation constant, usually derived from enzyme kinetics or from competition with a known ligand. Low readings indicate higher affinity, high ones lower affinity.

One test addresses T1, 5-HT1A receptors (Rattus norvegicus, UniProt P19327).
T1 sequence (P19327 1-422): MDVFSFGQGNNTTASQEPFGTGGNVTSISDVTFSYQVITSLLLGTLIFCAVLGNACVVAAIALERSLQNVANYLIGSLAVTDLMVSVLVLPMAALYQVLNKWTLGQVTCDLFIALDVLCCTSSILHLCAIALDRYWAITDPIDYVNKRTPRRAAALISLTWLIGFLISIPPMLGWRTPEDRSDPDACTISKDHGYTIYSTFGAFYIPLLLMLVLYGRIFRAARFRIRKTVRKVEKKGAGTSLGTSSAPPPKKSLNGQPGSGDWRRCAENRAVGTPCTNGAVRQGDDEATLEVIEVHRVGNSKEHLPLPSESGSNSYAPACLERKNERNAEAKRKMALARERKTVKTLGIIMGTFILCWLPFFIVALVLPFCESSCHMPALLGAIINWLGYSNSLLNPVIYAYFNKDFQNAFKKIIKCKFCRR
The test can be described thus: inhibition of [3H]8-OH-DPAT binding to 5-HT1A receptors in vitro. Details: species or system rat (male Sprague-Dawley, hippocampal tissue). To be noted: rat hippocampus; for Ki: [3H]8-OH-DPAT 2 nM, 25° C., 30 min.

In the next test the target is α1-adrenoceptors. As to the kind of experiment: inhibition of 7-methoxy-[3H]prazosin binding to α1-adrenoceptors in vitro. Details: species or system rat (male Charles River CD, whole cortical tissue). To be noted: rat whole cortex, 30 min; for Ki: 7-methoxy-[3H]prazosin 0.1 nM, 30° C. The method in brief: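 Male CD rat cortical membranes in 50 mM Tris-HCl pH 7.6 were incubated 30 min at 30 °C with 7-methoxy-[3H]prazosin (0.1 nM as added), with 5 μM phentolamine (as added) defining non-specific binding, then filtered and counted. Compounds were tested at 10^-6 M for % displacement or at 10^-11–10^-3 M for IC50, and Ki was derived from IC50, ligand concentration and KD.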

A further test has as its target D2 dopamine receptors (Rattus norvegicus, UniProt P61169). As to the kind of experiment: inhibition of tritiated (S)-sulpiride binding to D2 dopamine receptors in vitro. Further details: species or system rat (male Charles River CD, striatal tissue). To be noted: rat striatum, tritiated (S)-sulpiride 1 nM, 4° C., 40 min.
The target in another test is T2, α2D-adrenoceptors (Rattus norvegicus, UniProt P22909).
T2 sequence (P22909 1-465): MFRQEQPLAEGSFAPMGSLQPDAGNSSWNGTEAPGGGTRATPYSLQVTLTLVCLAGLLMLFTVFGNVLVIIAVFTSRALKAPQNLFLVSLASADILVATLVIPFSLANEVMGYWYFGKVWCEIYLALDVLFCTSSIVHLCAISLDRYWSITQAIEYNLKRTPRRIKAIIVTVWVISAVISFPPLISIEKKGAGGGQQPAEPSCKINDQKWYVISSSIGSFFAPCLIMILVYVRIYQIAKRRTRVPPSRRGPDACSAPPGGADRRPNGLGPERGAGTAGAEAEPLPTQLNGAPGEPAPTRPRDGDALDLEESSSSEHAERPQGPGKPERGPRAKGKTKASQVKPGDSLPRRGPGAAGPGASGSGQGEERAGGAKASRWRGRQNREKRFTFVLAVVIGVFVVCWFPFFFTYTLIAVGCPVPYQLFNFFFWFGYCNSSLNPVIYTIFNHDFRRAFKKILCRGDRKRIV
The test can be described thus: inhibition of tritiated idazoxan binding to α2D-adrenoceptors in vitro. Further details: species or system rat (male Charles River CD, frontal cortical tissue). Particulars: rat frontal cortex; for Ki: [3H]idazoxan 1 nM, 0° C., 75 min; for inhibition at 1 µM: 10^-6 M, [3H]idazoxan, read-out: % displacement at 10^-6 M, α2D.

Another test addresses T3, α2A-adrenoceptors (Homo sapiens, UniProt P08913).
T3 construct: Human cerebral cortex obtained at post-mortem; from tissue; host or cells: human cerebral cortex, post-mortem
T3 sequence (P08913 1-465): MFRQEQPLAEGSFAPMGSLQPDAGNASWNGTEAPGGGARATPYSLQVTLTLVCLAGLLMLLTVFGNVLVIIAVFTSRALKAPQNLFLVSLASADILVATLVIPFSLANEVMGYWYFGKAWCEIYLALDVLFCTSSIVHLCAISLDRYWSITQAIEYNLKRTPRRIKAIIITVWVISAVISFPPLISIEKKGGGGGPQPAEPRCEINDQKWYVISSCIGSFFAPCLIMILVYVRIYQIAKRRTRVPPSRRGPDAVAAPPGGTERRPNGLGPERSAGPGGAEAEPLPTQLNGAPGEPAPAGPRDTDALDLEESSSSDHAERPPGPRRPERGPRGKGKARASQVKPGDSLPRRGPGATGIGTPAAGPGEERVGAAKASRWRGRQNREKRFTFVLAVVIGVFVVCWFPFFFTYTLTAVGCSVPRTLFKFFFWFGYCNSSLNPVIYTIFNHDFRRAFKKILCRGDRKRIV
The test can be described thus: inhibition of tritiated RX 821002 binding to α2A-adrenoceptors in vitro. Further details: species or system human (cerebral cortex post-mortem). Particulars: 10^-6 M, human cerebral cortex, [3H]RX 821002; read-out: % displacement at 10^-6 M, α2A. The procedure: Human cerebral cortex obtained at post-mortem was homogenised in ice-cold 0.25M sucrose (1:30 w/v) and centrifuged at 1,000 g at 4° C. for 12 minutes. The supernatant was stored on ice and the pellet was rehomogenised in 0.25M sucrose (1:15 w/v) and centrifuged at 850 g at 4° C. for 12 minutes. Combined supernatants were diluted with 5 mM Tris-HCl (pH 7.5) containing 5 mM ethylenediamine tetraacetic acid (EDTA), readjusted to pH 7.5 (at 25° C.) with 1M sodium hydroxide to 1:80 w/v, and centrifuged at 11,000 g at 4° C. for 10 minutes. The resulting pellet was resuspended in 50 mM Tris-HCl (pH 7.5) containing 5.68 mM L-ascorbic acid and 0.5 mM EDTA, readjusted to pH 7.5 (at 25° C.) with 1M sodium hydroxide to 1:80 w/v, and centrifuged at 11,000 g for 10 minutes. The pellet was stored at -80° C. On the day of the assay the pellet was thawed, resuspended in 50 mM Tris-HCl (pH 7.5) containing 5.68 mM L-ascorbic acid and 5 mM EDTA to 1:80 w/v and centrifuged at 11,000 g for 10 minutes. The final pellet was resuspended in 50 mM Tris-HCl (pH 7.5) containing 5.68 mM L-ascorbic acid and 5 mM EDTA (equivalent to 25 mg wet weight of tissue/ml).
Aliquots (400 μl; equivalent to 10 mg wet weight of tissue/tube) of this suspension were added to tubes containing the ligand (50 μl; 0.2 nM) and distilled water (50 μl; total binding) or phentolamine (50 μl; 50 μM; non-specific binding) or test compound (50 μl; at a single concentration of 10^-6 M or at 10 concentrations ranging from 10^-11 -10^-3 M). The ligand was tritiated RX 821002 (2-(2-methoxy-1,4-[6,7(n)-^3 H]benzodioxan-2-yl)-2-imidazoline) and the mixture was incubated at 0° C. for 75 minutes before the incubation was terminated by rapid filtration.
The filters were washed with ice-cold Tris-HCl buffer and dried. The filters were punched out into vials, scintillation fluid added and radioactivity determined by liquid scintillation counting. The percentage displacement of specific binding of the tritiated ligand was calculated for the single concentration (10^-6 M) of test compound. Displacement curves were then produced for those compounds which displaced ≥50% of specific binding of the tritiated ligand at 10^-6 M using a range of concentrations of the compound. The concentration which gave 50% inhibition of specific binding (IC50) was obtained from the curve. The inhibition coefficient Ki was then calculated using the formula [formula] in which [ligand] is the concentration of the tritiated ligand used and KD is the equilibrium dissociation constant for the ligand.

Sequence of D2 dopamine receptors (P61169 whole entry): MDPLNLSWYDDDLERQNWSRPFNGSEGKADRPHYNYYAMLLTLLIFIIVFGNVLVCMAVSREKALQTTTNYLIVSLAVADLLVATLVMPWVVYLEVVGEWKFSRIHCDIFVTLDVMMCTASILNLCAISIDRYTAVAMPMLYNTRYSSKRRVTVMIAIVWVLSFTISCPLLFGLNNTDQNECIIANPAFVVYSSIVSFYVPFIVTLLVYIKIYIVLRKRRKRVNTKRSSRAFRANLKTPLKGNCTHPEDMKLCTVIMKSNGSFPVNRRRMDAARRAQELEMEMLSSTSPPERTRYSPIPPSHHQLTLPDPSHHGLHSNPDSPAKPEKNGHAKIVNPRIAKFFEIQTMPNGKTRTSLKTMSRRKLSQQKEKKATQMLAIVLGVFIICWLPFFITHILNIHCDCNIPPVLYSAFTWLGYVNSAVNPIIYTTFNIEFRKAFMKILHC
Description for 5-HT1A receptors: Hippocampal tissue from the brains of male Sprague-Dawley rats (Charles River; weight range 150-250 g) was homogenised in ice-cold 50 mM Tris-HCl buffer (pH 7.7 when measured at 25° C., 1:40 w/v) and centrifuged at 30,000 g at 4° C. for 10 minutes. The pellet was rehomogenised in the same buffer, incubated at 37° C. for 10 minutes and centrifuged at 30,000 g at 4° C. for 10 minutes. The final pellet was resuspended in 50 mM Tris-HCl buffer (pH 7.7) containing 4 mM CaCl2. 0.1% L-ascorbic acid and 10 μM pargyline hydrochloride (equivalent to 6.25 mg wet weight of tissue/ml) and used immediately in the binding assay. Aliquots (400 μl; equivalent to 2.5 mg wet weight of tissue/tube) of this suspension were added to tubes containing the ligand (50 μl; 2 nM) and distilled water (50 μl; total binding) or 5-HT (50 μl; 10 μM; non-specific binding) or test compound (50 μl; at a single concentration of 10^-6 M or at 10 concentrations ranging from 10^-11 -10^-3 M). The ligand was [^3 H]8-hydroxy-2-(dipropylamino)tetralin ([^3 H]8-OH-DPAT) and the mixture was incubated at 25° C. for 30 minutes before the incubation was terminated by rapid filtration.

On to `Nc1c(CN2CCN(c3cccc4c3OCCO4)CC2)c(C2CC2)nn1Cc1ccccc1` [Example 26, 5-Amino-4-[4-(1,4-benzodioxan-5-yl)piperazin-1-ylmethyl]-1-benzyl-3-cyclopropylpyrazole], for which the Ki worked out at 0.015 µM on 5-HT1A receptors, 0.0099 µM on α1-adrenoceptors, 0.185 µM at D2 dopamine receptors and 0.0089 µM on α2D-adrenoceptors. The inhibition at 1 µM on α2A-adrenoceptors was found to be 100%.

Turning to `Nc1c(CN2CCN(c3cccc4ccoc34)CC2)c(C2CC2)nn1-c1ccccc1` [Example 27, 5-Amino-4-[4-(7-benzo[b]furanyl)piperazin-1-ylmethyl]-3-cyclopropyl-1-phenylpyrazole], the Ki on 5-HT1A receptors was 0.016 µM; on α1-adrenoceptors, 0.0071 µM; on D2 dopamine receptors it was > 0.5 µM; at α2D-adrenoceptors, 0.0049 µM. Moreover, on α2A-adrenoceptors, the inhibition at 1 µM is 99%.

Regarding `CC(C)Oc1ccccc1N1CCN(Cc2c(C3CCC3)nn(C)c2N)CC1` [Example 28, 5-Amino-3-cyclobutyl-4-[4-(2-isopropoxyphenyl)piperazin-1-ylmethyl]-1-methylpyrazole], the figures for the Ki on 5-HT1A receptors, on α1-adrenoceptors and at D2 dopamine receptors were 0.04 µM, 0.027 µM and 0.025 µM, respectively. Besides, the inhibition at 1 µM on α2D-adrenoceptors was found to be 93%; on α2A-adrenoceptors, 99%.

In the case of `Nc1c(CN2CCN(c3cccc4c3OCCO4)CC2)c(C2CCC2)nn1-c1ccccc1` [Example 29, 5-Amino-4-[4-(1,4-benzodioxan-5-yl)piperazin-1-ylmethyl]-3-cyclobutyl-1-phenylpyrazole], the values for the Ki at 5-HT1A receptors, at α1-adrenoceptors and at D2 dopamine receptors were 0.034 µM, 0.05 µM and > 0.5 µM, respectively. For the same compound, the values for the inhibition at 1 µM at α2D-adrenoceptors and at α2A-adrenoceptors were 96% and 100%, respectively.

As for `Cn1nc(C2CCC2)c(CN2CCN(c3cccc4c3OCCO4)CC2)c1N` [Example 30, 5-Amino-4-[4-(1,4-benzodioxan-5-yl)piperazin-1-ylmethyl]-3-cyclobutyl-1-methylpyrazole], the results for the Ki at 5-HT1A receptors, at α1-adrenoceptors and at D2 dopamine receptors were 0.018 µM, 0.064 µM and 0.265 µM, respectively. Further, the inhibition at 1 µM at α2D-adrenoceptors came out at 94%; on α2A-adrenoceptors, 99%.

Turning to `Cn1nc(C2CCCC2)c(CN2CCN(c3cccc4c3OCCO4)CC2)c1N` [Example 31, 5-Amino-4-[4-(1,4-benzodioxan-5-yl)piperazin-1-ylmethyl]-3-cyclopentyl-1-methylpyrazole], the figures for the Ki on 5-HT1A receptors, on α1-adrenoceptors and on D2 dopamine receptors were 0.021 µM, 0.045 µM and > 0.5 µM, respectively. Also, the inhibition at 1 µM at α2D-adrenoceptors stood at 82%; on α2A-adrenoceptors it was 95%.

Regarding `N#Cc1ccc(-n2nc(C3CC3)c(CN3CCN(c4cccc5c4OCCO5)CC3)c2N)cc1` [Example 32, 4-{5-Amino-4-[4-(1,4-benzodioxan-5-yl)piperazin-1-ylmethyl]-3-cyclopropylpyrazol-1-yl}benzonitrile], the Ki came out at 0.129 µM at 5-HT1A receptors, 0.044 µM at α1-adrenoceptors and 0.32 µM on D2 dopamine receptors. The inhibition at 1 µM on α2D-adrenoceptors is 92%; on α2A-adrenoceptors, 91%.

Take `Nc1c(CN2CCN(c3cccc4c3OCCO4)CC2)c(C2CC2)nn1-c1ccccc1Cl` [Example 33, 5-Amino-4-[4-(1,4-benzodioxan-5-yl)piperazin-1-ylmethyl]-1-(2-chlorophenyl)-3-cyclopropylpyrazole]: the inhibition at 1 µM stood at 98% at 5-HT1A receptors (10^-6 M, [3H]8-OH-DPAT, read-out: % displacement at 10^-6 M, 5-HT1A); 96% at α2D-adrenoceptors; 100% on α2A-adrenoceptors. Also, the “% displacement at 10^-6 M, α1” value in the test on α1-adrenoceptors (10^-6 M, 7-methoxy-[3H]prazosin, 1 µM) stood at 94%. The Ki on D2 dopamine receptors was > 0.5 µM.

Regarding `Nc1c(CN2CCN(c3cccc4c3OCCO4)CC2)c(C2CC2)nn1-c1ccncc1` [Example 34, 5-Amino-4-[4-(1,4-benzodioxan-5-yl)piperazin-1-ylmethyl]-3-cyclopropyl-1-(4-pyridyl)pyrazole], the Ki on 5-HT1A receptors was determined as 0.118 µM; on α1-adrenoceptors, 0.102 µM; on D2 dopamine receptors it was 0.088 µM. Besides, the inhibition at 1 µM at α2D-adrenoceptors came out at 87%; on α2A-adrenoceptors, 96%.

Consider `Nc1c(CN2CCN(c3cccc4c3OCCO4)CC2)c(C2CC2)nn1-c1ncccn1` [Example 35, 5-Amino-4-[4-(1,4-benzodioxan-5-yl)piperazin-1-ylmethyl]-3-cyclopropyl-1-(2-pyrimidinyl)pyrazole], for which the Ki at 5-HT1A receptors amounted to 0.0023 µM; at α1-adrenoceptors, 0.082 µM; at D2 dopamine receptors, 0.184 µM. Besides, the inhibition at 1 µM at α2D-adrenoceptors was 96%; at α2A-adrenoceptors, 100%.

For `COc1ccccc1N1CCN(CC2(C)N=C(c3cccnc3)NC2=O)CC1` (stereo not drawn) [Example 36, 4-[4-(2-methoxyphenyl)piperazin-1-ylmethyl]-4-methyl-2-(3-pyridyl)-2-imidazolin-5-one], the Ki on 5-HT1A receptors turned out to be 0.134 µM; on α1-adrenoceptors, 0.396 µM; on D2 dopamine receptors it was 0.297 µM; at α2D-adrenoceptors it was 0.127 µM. Also, the inhibition at 1 µM at α2A-adrenoceptors amounted to 66%.

For `COc1ccccc1N1CCN(CC2(C)N=C(c3ccccc3)NC2=O)CC1` (stereo not drawn) [Example 37, 4-[4-(2-methoxyphenyl)piperazin-1-ylmethyl]-4-methyl-2-phenyl-2-imidazolin-5-one], the Ki on 5-HT1A receptors was determined as 0.093 µM; at α1-adrenoceptors, 0.271 µM; on D2 dopamine receptors, 0.268 µM; at α2D-adrenoceptors it was 0.112 µM. Besides, the inhibition at 1 µM at α2A-adrenoceptors was 69%.
